From ChEMBL document CHEMBL5576149, “Discovery of Potent STT3A/B Inhibitors and Assessment of Their Multipathogen Antiviral Potential and Safety” (J Med Chem, 2024)
Values after ≈ are worked out from the molar mass of the structure shown. Active and inactive are the calls of the source. The calls are words filed in the database; no cut-off is given here.

Legend:
[1] = Inhibition of STT3A/STT3B mediated N-linked glycosylation in human H1-HeLa cells stably transduced with ERluc by measuring effective concentration of inhibition incubated for 18 hrs by One-Glo luciferase reporter assay; assay type: cell-based
[2] = Cytotoxicity against human MRC5 cells by luminescence-based cell viability assay; assay type: toxicity
[3] = tested on: Human coronavirus 229E; assay: Antiviral activity against Human coronavirus 229E infected in human MRC5 cells assessed as reduction in viral growth incubated for 68 hrs by CellTiter-Glo luminescence assay; assay type: functional, organism-based; conditions: MRC5, 68 h
[4] = tested on: A549; assay: Cytotoxicity against human A549 cells by fluorescent cell imaging assay; assay type: functional
[5] = tested on: HepG2; assay: Selectivity ratio of apparent dissociation constant for binding affinity to STT3A in human HepG2 cells to apparent dissociation constant for binding affinity to STT3B in human HepG2 cells; assay type: cell-based
[6] = tested on: Human respirovirus 3; assay: Antiviral activity against Human parainfluenza virus 3 JS infected in human A549 cells assessed as reduction in viral proliferation incubated for 44 hrs by Hoechst dye based fluorescence analysis; assay type: functional, organism-based; conditions: Human respirovirus 3, JS, A549, 44 h
[7] = MRT in CD1 mouse at 2 mg/kg,po or 1 mg/kg,iv administrated upto 60 mins by LC-MS/MS analysis; assay type: ADME, organism-based; conditions: in vivo
[8] = tested on: Influenza A virus; assay: Antiviral activity against influenza A virus H1N1 A/Puerto Rico/8/1934 infected in MDCK cells assessed as reduction in viral proliferation incubated for 24 hrs by FFU assay; assay type: functional, organism-based; conditions: H1N1 A/Puerto Rico/8/1934, MDCK
[9] = Chromatographic hydrophobicity index, logD of the compound at pH 7.4; assay type: physicochemical; conditions: buffer
[10] = Bioavailability in CD1 mouse at 2 mg/kg,po or 1 mg/kg,iv administrated upto 60 mins by LC-MS/MS analysis; assay type: ADME, organism-based; conditions: in vivo
[11] = tested on: A549; assay: Cytotoxicity against human A549 cells; assay type: functional
[12] = Unbound clearance in human liver microsomes at 0.5 uM incubated upto 45 mins; assay type: ADME, Microsome; conditions: 0.75 h
[13] = tested on: SARS-CoV-2; assay: Antiviral activity against SARS-CoV-2 infected in human A549 cells assessed as reduction in viral growth incubated for 24 hrs by Nano-Glo reagent based analysis; assay type: functional, organism-based; conditions: Severe acute respiratory syndrome coronavirus 2, A549, 24 h
[14] = Solubility of compound in FaSSIF; assay type: ADME
[15] = Unbound clearance in CD1 mouse at 2 mg/kg,po or 1 mg/kg,iv administrated upto 60 mins by LC-MS/MS analysis; assay type: ADME, organism-based; conditions: in vivo, 1 h
[16] = Unbound clearance in mouse liver microsomes at 0.5 uM incubated upto 45 mins; assay type: ADME, Microsome; conditions: 0.75 h
[17] = Volume of distribution at steady state in CD1 mouse at 2 mg/kg,po or 1 mg/kg,iv administrated upto 60 mins by LC-MS/MS analysis; assay type: ADME, organism-based; conditions: in vivo, 1 h
[18] = tested on: H1-HeLa; assay: Inhibition of STT3A/STT3B in human H1-HeLa cells assessed as upregulation of DERL3 gene expression incubated for 24 hrs; assay type: cell-based
[19] = tested on: H1-HeLa; assay: Inhibition of STT3A/STT3B in human H1-HeLa cells assessed as upregulation of SDF2L1 gene expression incubated for 24 hrs; assay type: cell-based
[20] = tested on: H1-HeLa; assay: Inhibition of STT3A/STT3B in human H1-HeLa cells assessed as upregulation of MANF gene expression incubated for 24 hrs; assay type: cell-based
[21] = Unbound clearance in rat liver microsomes at 0.5 uM incubated upto 45 mins; assay type: ADME, Microsome; conditions: 0.75 h
[22] = tested on: H1-HeLa; assay: Inhibition of STT3A/STT3B in human H1-HeLa cells assessed as upregulation of […] gene expression incubated for 24 hrs; assay type: cell-based
[23] = Inhibition of STT3A/STT3B mediated N-linked glycosylation in STT3A knockout human H1-HeLa cells stably transduced with Halo3N-ER sequence by measuring effective concentration incubated for 24 hrs by Western blotting analysis; assay type: cell-based
[24] = tested on: Influenza A virus; assay: Antiviral activity against influenza A virus H1N1 A/Puerto Rico/8/1934 infected in MDCK cells assessed as reduction in viral replication measured after 3 hrs of post-infection by RT-qPCR analysis relative to control; assay type: functional; set-up: scale not given: the % may be the effect or the level left
[25] = tested on: Influenza A virus; assay: Antiviral activity against influenza A virus H1N1 A/Puerto Rico/8/1934 infected in MDCK cells assessed as reduction in viral replication measured after 30 hrs of post-infection by RT-qPCR analysis relative to control; assay type: functional; set-up: scale not given: the % may be the effect or the level left
[26] = MRT in Wistar Han rat at 2 mg/kg,po or 1 mg/kg,iv administrated upto 60 mins by LC-MS/MS analysis; assay type: ADME, organism-based; conditions: in vivo
[27] = Bioavailability in Wistar Han rat at 2 mg/kg,po or 1 mg/kg,iv administrated upto 60 mins by LC-MS/MS analysis; assay type: ADME, organism-based; conditions: in vivo
[28] = Unbound clearance in Wistar Han rat at 2 mg/kg,po or 1 mg/kg,iv administrated upto 60 mins by LC-MS/MS analysis; assay type: ADME, organism-based; conditions: in vivo, 1 h
[29] = Inhibition of STT3A/STT3B mediated N-linked glycosylation in STT3B knockout human H1-HeLa cells stably transduced with Halo3N-ER sequence by measuring effective concentration incubated for 24 hrs by Western blotting analysis; assay type: cell-based
[30] = Volume of distribution at steady state in Wistar Han rat at 2 mg/kg,po or 1 mg/kg,iv administrated upto 60 mins by LC-MS/MS analysis; assay type: ADME, organism-based; conditions: in vivo, 1 h
[31] = Cytotoxicity against human Hepatocyte cultured as 3D spheroids incubated for 14 days by CellTiter-Glo luminescence assay; assay type: toxicity, cell-based; conditions: hepatocytes cultured as 3D spheroids

SMILES	EC50 [1] [nM]	CC50 [2] [nM]	EC50 [3] [nM]	EC50 [6] [nM]	chromatographic logD [9]	CL free [12] [mL/min/kg]	EC50 [13] [nM]	CL free [21]	also measured
Cc1ccc2cc(-c3cc(S(=O)(=O)N(C)CC(=O)N4CCOC[C@@H]4C)ccc3N3CCCC3)[nH]c2c1	1	199	5	12					CC50 [4]: 57 nM; Selectivity ratio [5]: 10
CCS(=O)(=O)c1ccc(N2CC[C@H](O)C2)c(-c2cc3ccccc3[nH]2)c1	36	4110	58		4.3	< 19	116		MRT [7]: 84 min; EC50 [8]: 307 nM; bioavailability [10]: 33%; CC50 [11]: 3800 nM; solubility [14]: 130 µg/mL (≈ 351 µM); CL free [15]: 706 mL/min/kg; CL free [16]: < 49 mL/min/kg; Vdss [17]: 2.7 L/kg
CN(C)S(=O)(=O)c1ccc(N2CCCC2)c(-c2cc3ccccc3[nH]2)c1	21	688	25	9	7	303	34	23136 mL/min/kg	MRT [7]: 54 min; EC50 [8]: 152 nM; inhibition [18]: Active; bioavailability [10]: 2%; inhibition [19]: Active; inhibition [20]: Active; CC50 [11]: 590 nM; inhibition [22]: Active; EC50 [23]: 34 nM; Activity [24]: >90%; Activity [25]: 60%; MRT [26]: 42 min; CC50 [4]: 661 nM; bioavailability [27]: 0%; solubility [14]: < 1 µg/mL; CL free [28]: 102538 mL/min/kg; CL free [15]: 61467 mL/min/kg; EC50 [29]: 36 nM; Vdss [17]: 6 L/kg; Vdss [30]: 5.7 L/kg
CN(C)S(=O)(=O)c1ccc(N2CCCC2)c(-c2cc3cccnc3[nH]2)c1	409								
CN(C)S(=O)(=O)c1ccc(N2CCC2)c(-c2cc3ccccc3[nH]2)c1	31				6.5	117		7395 mL/min/kg	
Cc1ccc2cc(-c3cc(S(=O)(=O)N(C)CC(=O)NCCC4(CCNC(=O)O[C@@H]5CC/C=C/CCC5)N=N4)ccc3N3CCCC3)[nH]c2c1	827								
O=C([C@@H]1CCN1S(=O)(=O)c1ccc(N2CC[C@@H](O)C2)c(-c2cc3ccccc3[nH]2)c1)N1CCOCC1	5	926	7	57	3.5	904	4	1998 mL/min/kg	CC50 [11]: 2000 nM; CC50 [4]: 1950 nM
Cc1cnc(NC(=O)c2cc(S(=O)(=O)N(C)C)ccc2N2CCCC2)s1	589		1360	379	4.9		1360	~ 2000 ml/min.kg	IC50 at 14 days [31]: 20000 nM; MRT [26]: 18 min; bioavailability [27]: 0.6%; solubility [14]: < 1 µg/mL; CL free [28]: ~ 10000 ml/min.kg; Vdss [30]: 1.9 L/kg
CN(C)S(=O)(=O)c1ccc(N2CCCC2)c(-c2nc3ccccc3[nH]2)c1	4420								
CN(C)S(=O)(=O)c1ccc(N2CCCC2)c(-c2cc3ccc(F)cc3[nH]2)c1	62								
Cc1ccc2[nH]c(-c3cc(S(=O)(=O)N(C)C)ccc3N3CCCC3)cc2c1	32								
CN(C)S(=O)(=O)c1ccc(N2CCCC2)c(C(=O)Nc2ncc(C3CC3)s2)c1	332								
